Assay results: patent US20260083669A1, “AQUEOUS GEL COMPOSITION” (Acousia Therapeutics GmbH, priority 2022, published 2026)
“And” between values parts separate entries of the source, which are not always exact repeats. Equal values may be shown once. Read-outs that look alike come from different tables or passages of the source.

Legend:
Solubility in water = assay type: physicochemical; settings: 24 °C, room temperature (22-26° C.)
[1] = Viscosity test: temperature-induced rise in viscosity; assay type: physicochemical; settings: 15% poloxamer 407 gel with 2% API vs without
Experimental: The viscosity normally is measured with a viscometer, in particular a rheometer. A rheometer usually is a laboratory device measuring flow characteristics of a liquid, suspension or slurry in response to applied forces. A common device type is a so called shear rheometer, in which a shear stress is applied to the corresponding material. Devices which can be used to measure the viscosity of the aqueous gel compositions according to the invention are rheometers from Brookfield (AMETEK Brookfield). […]
Note: Maximal Viscosity is Identical for all Formulations (Due to the Test Method)

[2] = Pharmacokinetic study after unilateral transtympanic administration (plasma, inner ear, perilymph, brain); assay type: in vivo, female Sprague Dawley rats; settings: rat; for concentration at 14 days: 14 days after administration; for ACOU085 plasma concentration / ACOU085 brain concentration: 6% thermo-reversible formulation 1.2 mg/animal unilateral transtympanic
Experimental: Eighteen female Sprague Dawley rats entered a pharmacokinetic study, to determine the distribution of a 6% thermo-reversible ACOU085 formulation at a dose of 1.2 mg/animal after unilateral transtympanic administration in peripheral plasma, inner ear, perilymph, brain and CSF.
4, 24, 48, 96, 168 and 336 h after dosing n=3 rats out of every group were euthanized with carbon dioxide, peripheral and final blood samples and brain were taken and inner ears were dissected to analyze ACOU085 concentrations. Body weight was assessed on the day 1-4, on day 7 and day 14. Animals were checked for any clinical signs associated with toxicity of the test substance.

[3] = 6% thermo-reversible formulation 1.2 mg/animal transtympanic

SMILES | solubility (Solubility in water) [µg/mL] | effect of API on the viscosity-temperature relation of the formulation [1] | concentration at 336 h ([2]; female, Sprague Dawley, other: transtympanic, perilymph, 6% formulation 1.2 mg/animal unilateral transtympanic, Left side, 336 h, animals 1-3, read-out: Uptake of ACOU085 into the perilymph: ACOU085 inner ear concentration) [nM] | concentration at 14 days ([2]; female, Sprague Dawley, brain, other: transtympanic, 1.2 mg/animal, read-out: brain concentration (average)) [nM] | concentration at 4 h ([2]; female, Sprague Dawley, inner ear, left side, other: transtympanic, 1.2 mg/animal, 6% formulation 1.2 mg/animal unilateral transtympanic, Left side, 4 h, animals 1-3, read-out: ACOU085 inner ear concentration) [nM] | concentration at 14 days ([2]; female, Sprague Dawley, plasma, other: transtympanic, 1.2 mg/animal, read-out: plasma concentration (average)) [nM] | concentration at 7 days ([2]; female, Sprague Dawley, plasma, other: transtympanic, 1.2 mg/animal, after 7 days) [nM] | ACOU085 inner ear concentration ([2]; 6% formulation 1.2 mg/animal unilateral transtympanic, Left side, 4 h, animals 1-3) | maximal average concentration in brain [2, 3] [nmol/L] | maximal average concentration in plasma [2, 3] [nmol/L] | ACOU085 plasma concentration ([2]; 4 h (printed 4 11), animals 1-3) | ACOU085 brain concentration ([2]; 48 h, animals 1-3) | ACOU085 plasma concentration ([2]; 48 h, animals 1-3) | ACOU085 brain concentration ([2]; 96 h, animals 1-3) | ACOU085 plasma concentration ([2]; 96 h, animals 1-3) | time of peak brain concentration ([2]; after injection) [h] | uptake into the brain and into the plasma ([2]; compared with inner ear tissue and perilymph) | Uptake of ACOU085 into the perilymph: ACOU085 inner ear concentration ([2]; perilymph, 6% formulation 1.2 mg/animal unilateral transtympanic, Left side, 336 h, animals 1-3)
O=C(NCc1cccc(S(F)(F)(F)(F)F)c1)[C@H]1C[C@@H]2CC[C@H]1C2 (racemic) [Compound A, (1SR,2SR,4RS)—N-(3-(pentafluoro-λ6-sulfanyl)benzyl) bicyclo[2.2.1]heptane-2-carboxamide] | < 1000 | – | – | – | – | – | – | – | – | – | – | – | – | – | – | – | – | –
O=C(NCc1cccc(S(F)(F)(F)(F)F)c1)[C@H]1C[C@@H]2CC[C@H]1C2 [ACOU085, (1S,2S,4R)—N-(3-(pentafluorosulfanyl)benzyl) bicyclo[2.2.1]heptane-2-carboxamide] | < 1000 | no effect | 4 | 8 | 55 | 4 | 26 | 82 nmol/L and 93 nmol/L | 82 | 45 | 9 nnmol/L and 6 nnmol/L and 12 nnmol/L | 38 nnmol/L and 53 nnmol/L and 76 nnmol/L | 12 nnmol/L and 18 nnmol/L and 16 nnmol/L | 94 nnmol/L and 52 nnmol/L and 68 nnmol/L | 48 nnmol/L and 26 nnmol/L and 33 nnmol/L | 96 | low in comparison to the inner ear tissue and perilymph | 3 nmol/L and 2 nmol/L
